Measured values published in PubChem BioAssay (NCI).
Several values for one entry are separate records, joined by “and”; a condition that tells them apart may be missing. Identical values can stand only once.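 A five-concentration, 48-hour dose response in 96-well plates underlies each endpoint, interpolated linearly between surrounding concentrations. GI50: concentration for 50% inhibition of growth. The concentration for full growth arrest is given as TGI.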

Key:
Experiment in all cases: inhibition of tumour cell growth, NCI panel, 48 h
A549 NSCLC = test system: A549 NSCLC
DU-145 prostate = test system: DU-145 prostate
KM12 colon = test system: KM12 colon
M14 melanoma = test system: M14 melanoma
NCI-H23 lung = test system: NCI-H23 lung
OVCAR-4 ovarian = test system: OVCAR-4 ovarian
OVCAR-8 ovarian = test system: OVCAR-8 ovarian
SF-295 CNS = test system: SF-295 CNS
SNB-75 CNS = test system: SNB-75 CNS
TK-10 renal = test system: TK-10 renal

Compound | TGI (A549 NSCLC) | TGI (DU-145 prostate) | TGI (KM12 colon) [µM] | TGI (M14 melanoma) | TGI (NCI-H23 lung) | TGI (OVCAR-4 ovarian) | TGI (OVCAR-8 ovarian) | TGI (SF-295 CNS) | TGI (SNB-75 CNS) | TGI (TK-10 renal) | GI50 (A549 NSCLC) [µM] | GI50 (DU-145 prostate) [µM] | GI50 (M14 melanoma) [µM] | GI50 (OVCAR-4 ovarian) [µM] | GI50 (OVCAR-8 ovarian) [µM] | GI50 (SF-295 CNS) [µM] | GI50 (SNB-75 CNS) [nM] | GI50 (TK-10 renal) [µM] | GI50 (NCI-H23 lung) [µM]
C=CCn1c(-c2ccc([N+](=O)[O-])cc2)csc1=N | > 100 µM | > 100 µM | > 100 | > 100 µM | > 100 µM | > 100 µM | > 100 µM | > 100 µM | 95.6 µM | > 100 µM |  |  |  |  |  |  |  |  | 
COC(=O)c1c(O)ccc2c1c1c(n2Cc2ccccc2)C(=O)c2ccccc2C1 | > 100 µM | > 100 µM | > 100 | > 100 µM | > 100 µM | 70.4 µM | > 100 µM | > 100 µM | 70.2 µM | > 100 µM |  |  |  |  |  |  |  |  | 
C=C(C(=O)O[C@H]1C(=O)C2=C(C)CCC3C(=C)C(=O)O[C@@H]3C2[C@]1(C)O)C1CC[C@]2(C)CCCC(=C)[C@H]2C1 (stereo not given in full) | 12.9 µM and 24.5 µM | 11.3 µM and 10.3 µM | 20.5 | 12.3 µM and 20.3 µM | 16.1 µM and 16.8 µM | 13.4 µM and 11.3 µM | 12.3 µM and 13.1 µM | 9.37 µM and 29.5 µM | 8.05 µM and 6.71 µM | 12.3 µM and 6.78 µM | 5.59 | 5.37 | 5.74 | 6.69 | 5.67 | 0.0252 | 2420 | 6 | 
CCOC(=O)/C=C(\C(=O)OCC)n1ccc(=O)[nH]c1=O | > 84.5 µM | > 76.9 µM | 35.2 | 31.4 µM | 32.4 µM | > 52.3 µM | > 53.4 µM | > 100 µM | 35.3 µM | 26.2 µM |  |  |  |  |  |  |  |  | 
COc1ccc(N2NC(c3ccccc3)(c3ccccc3)C(C)C2=O)cc1 (stereo not given) | > 100 µM | > 100 µM | > 100 | > 100 µM | > 100 µM | > 100 µM | > 100 µM | > 100 µM | > 100 µM | > 100 µM |  |  |  |  |  |  |  |  | 
CCCCCCCCCCCCCC(=O)N(CCCCCCCCC)CC(O)C(O)C(OC1OC(CO)C(O)C(O)C1O)C(O)CO (stereo not given) | 50.5 µM | 30.6 µM | 37.1 | 40.8 µM | 41.5 µM | 46.6 µM | 39.3 µM | 41.2 µM | 37.3 µM | 33.7 µM |  |  |  |  |  |  |  |  | 
C=C(C)CNC(=S)N(N)c1ccc2ccccc2c1 | > 100 µM | > 100 µM | 62.4 | > 100 µM | > 100 µM | > 100 µM | > 100 µM | > 100 µM | > 100 µM | 71.4 µM |  |  |  |  |  |  |  |  | 
Oc1cc(Br)cc2cc(Cl)cnc12 | > 56.1 µM | > 55.5 µM | > 42.7 | 10.4 µM | 48.2 µM | 12.8 µM | > 40.6 µM | > 48 µM | > 90.3 µM | > 94.3 µM |  |  |  |  |  |  |  |  | 
Brc1ccc2c(-c3csc(-c4c[nH]c5ccccc45)n3)c[nH]c2c1 | 29.2 µM | 32.9 µM | 34.7 | 27.3 µM | 28.2 µM | 39.8 µM | 33.1 µM | 29.5 µM | 46.4 µM | 27.5 µM |  |  |  |  |  | 14.6 |  |  | 14.5
O=C1C(=Cc2ccc(Cl)c(Cl)c2)C([O-])=C([P+](c2ccccc2)(c2ccccc2)c2ccccc2)C([O-])=C1[P+](c1ccccc1)(c1ccccc1)c1ccccc1 | 10.4 µM | 28.1 µM | 4.66 | 6.66 µM | 10 µM | 10.4 µM | 6.7 µM | 6.74 µM | 15.9 µM | 5.6 µM |  |  |  |  |  |  |  |  | 
Cc1ccc([N+](=O)[O-])c2c(NCC(O)CO)ccnc12 (stereo not given) | > 100 µM | > 100 µM | > 100 | > 100 µM | > 100 µM | > 100 µM | > 100 µM | 73.9 µM | > 100 µM | > 100 µM |  |  |  |  |  |  |  |  | 
CN(C)CCCNCc1cccc2ccccc12 | > 100 µM | > 100 µM | > 100 | > 100 µM | > 100 µM | > 100 µM | > 100 µM | > 100 µM | > 100 µM | > 100 µM |  |  |  |  |  |  |  |  | 
O=c1ccc2ccc(O)cc2o1 | > 100 µM | > 100 µM | > 100 | > 100 µM | > 100 µM | > 100 µM | > 100 µM | > 100 µM | > 100 µM | > 100 µM |  |  |  |  |  |  |  |  | 
C=C1CN(C2=NCCO2)C1 | > 100 µM | > 100 µM | > 100 | > 100 µM | > 100 µM | > 100 µM | > 100 µM | > 100 µM | > 100 µM | > 100 µM |  |  |  |  |  |  |  |  | 
CC1=C(C)C(=O)C(C2=CC(=O)C=CC2=O)=C(C2=CC(=O)C=CC2=O)C1=O | > 100 µM | > 100 µM | > 100 | > 100 µM | > 100 µM | 51.3 µM | > 87.7 µM | > 100 µM | > 100 µM | > 100 µM |  |  |  |  |  |  |  |  | 
CC(C)(C)CC(C)(C)c1ccc(O)c(C[N+](C)(C)[O-])c1 | > 100 µM | > 100 µM | > 100 | > 100 µM | > 100 µM | > 100 µM | > 100 µM | > 100 µM | > 100 µM | > 100 µM |  |  |  |  |  |  |  |  | 
OC1C[C@H](c2ccccc2)C2(C(O)c3ccccc3C2O)[C@@H](c2ccccc2)C1 (stereo not given in full) | > 100 µM | > 100 µM | > 100 | > 100 µM | > 100 µM | > 100 µM | > 100 µM | > 100 µM | > 100 µM | > 100 µM |  |  |  |  |  |  |  |  | 
CCC(NC1=NCCO1)c1cccs1 (stereo not given) | 28.1 µM | 28.5 µM | 36 | 33.3 µM | 31.6 µM | 44.5 µM | 30.3 µM | 28.4 µM | 16.9 µM | 29.9 µM |  |  |  |  |  |  |  |  | 
Cc1ccc(NC(=O)CSC(N)=O)cc1C | > 100 µM | > 100 µM | > 100 | > 100 µM | > 100 µM | > 100 µM | > 100 µM | > 100 µM | > 100 µM | > 100 µM |  |  |  |  |  |  |  |  | 
O=[N+]([O-])C(Cl)=C/C(=C(\Cl)SCc1ccccc1)[N+](=O)[O-] | 73.5 µM | > 100 µM | > 100 | 53.8 µM | 69.6 µM | 41.2 µM | 59.9 µM | 99.6 µM | > 100 µM | 48.3 µM |  |  |  |  |  |  |  |  | 
CC(C)(C)[Si](C)(C)OCC1OC(n2cnc3c(=O)[nH]c(N)nc32)C(O[Si](C)(C)C(C)(C)C)C1O[Si](C)(C)C(C)(C)C (stereo not given) | 7.61 µM | 12.2 µM | 3.19 | 2.89 µM | 2.9 µM | 3.65 µM | 11.3 µM | 12 µM | 9.57 µM | 5.97 µM |  |  |  |  |  |  |  |  | 
Cc1sc2nc3n(c(=O)c2c1C)N=CN(c1ccc(F)cc1)C3 | > 100 µM | > 100 µM | > 100 | > 100 µM | > 100 µM | 38.5 µM | > 100 µM | > 100 µM | > 100 µM | > 100 µM |  |  |  |  |  |  |  |  | 
S=c1[nH]c2ccc(I)cc2c(=S)n1Cc1ccccc1 | > 100 µM | 11.9 µM | 50.7 | 31.6 µM | 9.61 µM | > 100 µM | 53.6 µM | 11.5 µM | 13.7 µM | 30.8 µM |  |  |  |  |  |  |  |  | 
CC(=O)OC1COC(Nc2nc(N)n(C)c(=O)c2N=O)C(OC(C)=O)C1OC(C)=O (stereo not given) | > 10 µM | > 10 µM | > 10 | > 10 µM | > 10 µM | > 10 µM | > 10 µM | > 10 µM | > 10 µM | > 10 µM |  |  |  |  |  |  |  |  | 
C=C1C(=O)OC2CC3(C)OC3CC/C(C)=C/C(OC(C)=O)C12 (stereo not given) | 33.7 µM | 28.4 µM | 39.9 | 9.86 µM | 27.6 µM | 16.1 µM | 13.6 µM | 27.4 µM | 22 µM | 12.8 µM |  |  |  |  |  |  |  |  | 
Fc1cc(-c2cc(-c3ccc4c(c3)OCO4)n[nH]2)c(Cl)cc1Cl | 7.86 µM | 13 µM | > 22.7 | 18.3 µM | 7.73 µM | 4.49 µM | 3.41 µM | 9.4 µM | 3.68 µM | 7.06 µM |  |  |  |  |  |  |  |  | 
O=C1CC2CCC(C1)S2=O (stereo not given) | > 100 µM | > 100 µM | > 100 | > 100 µM | > 100 µM | > 100 µM | > 100 µM | > 100 µM | > 100 µM | > 100 µM |  |  |  |  |  |  |  |  | 
